Data: article PMC7766124, “Improved Cell Selectivity of Pseudin-2 via Substitution in the Leucine-Zipper Motif: In Vitro and In Vivo Antifungal Activity” (Antibiotics, 2020)
≈ marks a conversion by molar mass, not a printed value. Read-outs that look alike come from different tables or passages of the source. No end group written: not given here.

Columns and labels:
[1] = tested on: F. moniliforme; format: cell-based, Fusarium moniliforme (KCTC 6149); conditions: 36 h
Text: (§1) Aspergillus flavus (KCTC 6905), A. fumigatus (KCTC 6145), Fusarium moniliforme (KCTC 6149), F. oxysporum (KCTC 16909), C. albicans (KCTC 7270), C. krusei (CCARM 14017), C. parapsilosis (CCARM 14016), C. tropicalis (KCTC 7221), and T. beigelii (KCTC 7707) were obtained from the Korea Collection for Type Cultures (KCTC) and Culture Collection of Antimicrobial Resistant Microbes (CCARM). Mold and yeast fungi were pre-grown on potato dextrose (PD) and yeast extract peptone dextrose (YPD) agars, respectively.
(§2) Antifungal activity of peptides was performed by microtiter plate assays. Fungal conidia from four-day-old molds were collected using 0.08% Triton X-100 (v/v), and pre-cultivated yeast cells were adjusted to 2 × 10^4 spores/mL in 10 mM sodium phosphate buffer (SP, pH 7.2) or 10 mM 2-(N-morpholino)ethanesulfonic acid (MES) buffer (pH 5.5) supplemented with 20% culture medium, followed by addition to peptide solutions (0.25, 0.5, 1, 1.5, 2, 4, 6, 8, 12, 16, 32, 48, and 64 µM) in 96-well microtiter plates. After incubation for 36 h at 28 °C, the hyphal growth of conidia and the proliferation of yeast cells were observed under a light microscope. All assays were performed in triplicate. The MIC values were defined as the lowest concentration of samples that reduced fungal germination (for mold) or cell proliferation (for yeast) by more than 90% [34].

[2] = tested on: C. tropicalis cells; assay: SYTOX Green uptake (membrane permeability); format: cell-based; conditions: SP buffer pH 7.2, 0.5 μM SYTOX Green, peptides 1-64 µM, monitored 30 min
Procedure: C. tropicalis cells pre-grown at 28 °C were washed and suspended (2 × 10^6 cells/mL) in SP buffer (pH 7.2). The cells were pre-incubated with SYTOX Green (final concentration of 0.5 μM) for 15 min in the dark, followed by adding two-fold serial dilutions of peptides at concentrations of 1 to 64 µM. The fluorescence intensity was monitored for 30 min at 485 (Ex) and 520 (Em) nm using a microtiter SpectraMax M5 reader (Molecular Devices, San Jose, CA, USA).

[3] = tested on: C. tropicalis; format: cell-based, C. tropicalis (KCTC 7221); conditions: 36 h
Text: as §1, §2

[4] = tested on: A. flavus; format: cell-based, Aspergillus flavus (KCTC 6905); conditions: 36 h
Text: as §1, §2

[5] = tested on: F. oxysporum; format: cell-based, F. oxysporum (KCTC 16909); conditions: 36 h
Text: as §1, §2

[6] = tested on: mouse erythrocytes; assay: Hemolytic assay; format: cell-based; conditions: 64 µM peptide, 8% (v/v) mRBCs, 37 °C, 2 h (method) / 4 h (figure legend)
Procedure: Mouse blood was collected into sodium heparin-coated tubes (BD Vacutainer; BD Diagnostics, Oxford, UK). The mRBCs were obtained by centrifugation (800× g, 10 min) and washing with PBS. The washed mRBCs were added to a final concentration of 8% (v/v) in 64 µM peptide solution, followed by incubation for 2 h at 37 °C. After centrifugation, each tube was digitally recorded.

[7] = Calcein leakage from fungus-mimic artificial vesicles; conditions: fungus-mimic PC/PE/PI/ergosterol vesicles, 20 μM lipid; peptide/lipid molar ratio 0.05; 100% = 0.03% Triton X-100; three independent experiments
Procedure: (§3) The permeability of peptides in calcein-entrapped artificial liposomes was assayed by measuring calcein leakage. The desired mixtures of lipids (PC/PE/PI/ergosterol, 5:4:1:2 and PC/CH/SM, 2:1:1, weight ratio) were dissolved in chloroform at 10 mg/mL, dried in a glass tube under nitrogen, and then lyophilized overnight to remove residual solvent. The dried lipid films were resuspended in 1 mL of dye solution (80 mM calcein, 10 mM HEPES buffer, pH 7.2) at 50 °C and vortexed, followed by freeze-thawing for nine cycles and extrusion with polycarbonate filters (0.2-μm pore-size) using an Avanti Mini-Extruder (Avanti Polar Lipids Inc., Alabaster, AL, USA). Free calcein was removed using PD-10 desalting columns (GE Healthcare Life Science, Seoul, Korea). Calcein-entrapped vesicles of 20 μM lipids were incubated with peptides at concentrations of […], 0.02, 0.05, and 0.1 molar ratio (peptide/lipid) and the fluorescence was assessed at 480 (Ex) and 520 (Em) nm using a microtiter SpectraMax M5 reader (Molecular Devices). Complete (100%) release was achieved by the addition of 0.03% Triton X-100 (v/v).

[8] = tested on: C. albicans; format: cell-based, C. albicans (KCTC 7270); conditions: 36 h
Text: as §1, §2

[9] = tested on: C. krusei; format: cell-based, C. krusei (CCARM 14017); conditions: 36 h
Text: as §1, §2

[10] = tested on: C. parapsilosis; format: cell-based, C. parapsilosis (CCARM 14016); conditions: 36 h
Text: as §1, §2

[11] = tested on: T. beigelii; format: cell-based, T. beigelii (KCTC 7707); conditions: 36 h
Text: as §1, §2

[12] = tested on: A. fumigatus; format: cell-based, A. fumigatus (KCTC 6145); conditions: 36 h
Text: as §1, §2

[13] = Calcein leakage from mammalian-mimic artificial vesicles; conditions: mammalian-mimic PC/CH/SM vesicles, 20 μM lipid; peptide/lipid molar ratio 0.1; 100% = 0.03% Triton X-100
Procedure: as §3

[14] = tested on: HaCaT cells; assay: Cytotoxicity, XTT cell viability assay; format: cell-based, human; conditions: peptides 4-256 µM, 24 h incubation, triplicate
Procedure: Cell viability was assessed using sodium XTT assays. HaCaT (human immortalized keratinocytes) cells were cultured in Dulbecco’s modified Eagle medium (DMEM; ThermoFisher Scientific, Gibco, Waltman, MA, USA) supplemented with antibiotic-antimycotic (ThermoFisher Scientific, Gibco) and 10% fetal bovine serum (FBS; ThermoFisher Scientific, Gibco) at 37 °C in a humidified chamber containing 5% CO2. The cells were seeded at 5 × 10^4 cells/mL in flat-bottom 96-well microtiter plates in triplicate. Twenty-four hours later, cells were treated with two-fold serial dilutions of peptides (ranging from 256 to 4 µM) in medium, and the cells were further incubated for 24 h. Next, activated-XTT solution was added to each well and the plates were additionally incubated for 4 h. Absorbance in each well was measured at wavelengths of 480 and 650 nm using a microtiter SpectraMax M5 reader (Molecular Devices, Sunnyvale, CA, USA). Triton X-100 (0.1% v/v) and DMEM were used as controls for survival.

[15] = tested on: C. tropicalis cells; assay: Mitochondrial superoxide, MitoSOX Red flow cytometry; format: cell-based; conditions: peptide at MIC for 8 h
Procedure: Mitochondrial SOX was measured using MitoSOX Red probe. C. tropicalis cells (2 × 10^4 spores/mL) were treated with samples at the appropriate MIC for 8 h and then stained with MitoSOX Red according to the manufacturer’s instructions. The stained cells were acquired by flow cytometry (Attune NxT Acoustic Focusing Cytometer; ThermoFisher Scientific Co., Eugene, OR, USA) at 561 nm by 10,000 total events.

[16] = 10 mM sodium phosphate buffer pH 7.2 with 20% culture medium, 28 °C, triplicate
[17] = acidic: 10 mM MES buffer pH 5.5 with 20% culture medium (value in parentheses), 28 °C, triplicate

| Molecule | SYTOX Green fluorescence intensity [2] | leakage of calcein [7] | MIC ([1]; pH 5.5) | MIC ([1]; pH 7.2) | MIC ([3]; pH 5.5) | MIC ([3]; pH 7.2) | MIC ([4]; pH 5.5) | MIC ([4]; pH 7.2) | MIC ([5]; pH 5.5) | MIC ([5]; pH 7.2) | MIC ([8]; pH 5.5) | MIC ([8]; pH 7.2) | MIC ([9]; pH 5.5) | MIC ([9]; pH 7.2) | MIC ([10]; pH 5.5) | MIC ([10]; pH 7.2) | MIC ([11]; pH 5.5) | MIC ([11]; pH 7.2) | MIC ([12]; pH 5.5) | MIC ([12]; pH 7.2) | other results |
| --- | --- | --- | --- | --- | --- | --- | --- | --- | --- | --- | --- | --- | --- | --- | --- | --- | --- | --- | --- | --- | --- |
| CC[C@H](C)[C@H](NC(=O)CN)C(=O)NCC(=O)N[C@@H](C)C(=O)N[C@H](C(=O)N[C@@H](CC(C)C)C(=O)N[C@@H](CCCCN)C(=O)N[C@H](C(=O)N[C@@H](CC(C)C)C(=O)N[C@H](C(=O)N[C@H](C(=O)NCC(=O)N[C@@H](CC(C)C)C(=O)N1CCC[C@H]1C(=O)N[C@@H](C)C(=O)N[C@@H](CC(C)C)C(=O)N[C@H](C(=O)N[C@@H](CO)C(=O)N[C@@H](Cc1c[nH]c2ccccc12)C(=O)N[C@H](C(=O)N[C@@H](CCCCN)C(=O)N[C@@H](CCCNC(=N)N)C(=O)N[C@@H](CCCCN)C(=O)N[C@@H](CCCNC(=N)N)C(=O)N[C@@H](CCC(N)=O)C(=O)N[C@@H](CCC(N)=O)C(N)=O)[C@@H](C)CC)[C@@H](C)CC)[C@@H](C)O)[C@@H](C)O)C(C)C)C(C)C [Melittin, reference compound] | gradual, concentration-dependent increases in fluorescence intensity | 84.1% |  |  |  |  |  |  |  |  |  |  |  |  |  |  |  |  |  |  | MIC [1, 16]: 32 (32) µM; MIC [1, 17]: 32 (32) µM; MIC [3, 16]: 16 µM (≈ 45.5 µg/mL); MIC [3, 17]: 8 µM (≈ 22.8 µg/mL); MIC ([4]; 10 mM sodium phosphate buffer pH 7.2 with 20% culture medium, 28 °C, >90% reduction of germination, triplicate): 6 µM (≈ 17.1 µg/mL); MIC [4, 17]: 4 µM (≈ 11.4 µg/mL); MIC [5, 16]: 64 µM (≈ 182 µg/mL); MIC [5, 17]: 32 µM (≈ 91.1 µg/mL); hemolytic effects (hemoglobin release, by visualization) [6]: severe hemolysis; MIC ([8]; 10 mM sodium phosphate buffer pH 7.2 with 20% culture medium, 28 °C, >90% reduction of proliferation, triplicate): 32 µM (≈ 91.1 µg/mL); MIC [8, 17]: 8 µM (≈ 22.8 µg/mL); MIC [9, 16]: 8 µM (≈ 22.8 µg/mL); MIC [9, 17]: 4 µM (≈ 11.4 µg/mL); MIC [10, 16]: 16 µM (≈ 45.5 µg/mL); MIC [10, 17]: 8 µM (≈ 22.8 µg/mL); MIC [11, 16]: 2 (2) µM; MIC [11, 17]: 2 (2) µM; MIC [12, 16]: 6 µM (≈ 17.1 µg/mL); MIC [12, 17]: 4 µM (≈ 11.4 µg/mL); calcein efflux [13]: significant dye leakage |
| GANALKKVAQGIHEAIKLINNHVQ-NH2 [P2-LZ2] |  | 77.0% | 16 µM | 24 µM | 1.5 µM | 2 µM | 12 µM | 32 µM | 16 µM | 2 µM | 32 µM | 4 µM | 4 µM | 6 µM | 64 µM | 48 µM | 2 (2) µM | 2 (2) µM | 16 µM | 24 µM |  |
| GLNAAKKVFQGAHEAIKLINNHVQ-NH2 [P2-LZ1] |  | 81.8% | 48 (48) µM | 48 (48) µM | 2 µM | 4 µM | 12 µM | 64 µM | 12 µM | 4 µM | 32 µM | 8 µM | 8 (8) µM | 8 (8) µM | > 64 (>64) µM | > 64 (>64) µM | 2 (2) µM | 2 (2) µM | 16 µM | 64 µM | cytotoxic effects against HaCaT cells [14]: significant, concentration-dependent cytotoxic effects |
| GLNALKKVFQGAHEAIKLANNHVQ-NH2 [P2-LZ3] |  | 48.3% | 32 µM | 64 µM | 2 (2) µM | 2 (2) µM | 32 µM | 64 µM | 16 µM | 4 µM | 16 µM | 8 µM | 8 (8) µM | 8 (8) µM | >64 (>64) µM | >64 (>64) µM | 2 µM | 6 µM | 16 µM | 64 µM |  |
| GLNALKKVKQGKHEAIKLINNHVQ-NH2 [P2-LZ5] | much lower than that in the presence of the other peptides | 33.8% | 64 (>64) µM | 64 (>64) µM | 16 µM | 8 µM | > 64 µM | 16 µM | 16 µM | 6 µM | 64 µM | 32 µM | 16 µM | 48 µM | >64 (>64) µM | >64 (>64) µM | 32 µM | 8 µM | > 64 µM | 16 µM | MitoSOX Red fluorescence (mitochondrial SOX) [15]: significantly increased |
